The test system of data set [1] is KBM7 cells. Put plainly: Viability/proliferation of wild type and ATPIF1 null KBM7 cells treated with mitochondrial poisons (7-AAD, FACS). It counts as cell-based, human. The settings on record: for resistance of ATPIF1 null KBM7 cells to the poison: viability four days later, 7-AAD, FIG. 1C-D, FIG. 2; for viability of ATPIF1 KO vs WT KBM7 cells in response to ETC inhibitors: 7AAD, FIG. 8A. The source says: In order to identify potential drug targets for treatment of mitochondrial disorders, we decided to use inhibitors of oxidative phosphorylation (OXPHOS) to model mitochondrial diseases and search for genes, loss-of-function of which can confer resistance to mitochondrial dysfunction caused by the poison. To that end, we explored use of a screening platform based on gene inactivation in human cells using insertional mutagenesis that has recently been developed using the KBM7 CML cell line, which is haploid for all chromosomes except chromosome 8 (5). In this system, insertional mutagenesis is accomplished using a gene trap vector. […]
For the viability assays described in this Example and Example 2, 200,000 cells were used for each sample. Cells were treated with the desired concentration of drug and viability was assessed four days later using 7-AAD and FACS analysis.
(§1) Suspension cells were kept on ice, then spun at 4000 rpm for 5 minutes at 4° C. in a table-top microcentrifuge, supernatant aspirated, cells washed once with ice-cold PBS, resuspended in ice-cold PBS with 2 ug/mL 7-AAD viability dye, incubated for 5 minutes on ice, and analyzed by FACS. For adherent cells, the overlying media and PBS used for pre-trypsinization washes was collected and combined with the suspension of trypsinized cells to gather any dead cells that may have detached into the media. The cell suspensions were kept on ice, spun at 1500 rpm for 5 minutes at 4° C. in a swinging bucket centrifuge, supernatant aspirated, cells washed once with ice-cold PBS, resuspended in ice-cold PBS with 2 ug/mL 7-AAD viability dye, incubated for 5 minutes on ice, and analyzed by FACS. Viability was assessed by 7-AAD exclusion. For HeLa, SH-SY5Y, and Malme-3M cells, 500-2,000 cells were seeded per well of white, clear-bottom 96-well plates (Greiner Bio-One), treated with drugs, and then analyzed using CellTiter-Glo according to the manufacturer's instructions (Promega). For primary hepatocytes, 100,000 cells were seeded per well of a 24-well TPP plate (Light Labs), treated with antimycin, and then analyzed using CellTiter-Glo.

Data set [2] has as its system KBM7 cells. Briefly: ddI-induced mtDNA depletion in WT and IF1 KO KBM7 cells (proliferation, mtDNA copy number, ATPIF1 protein). Type of data set: cell-based, human. The source says: mtDNA was extracted using a QiaAmp DNA Mini Kit (Qiagen) and primers specific to the mitochondrial gene ND1 and the nuclear gene Actb were used in conjunction with a SyBr Green Kit (AB) according to the manufacturer's instructions. The ratio of ND1 copies to Actb copies was used to assess the relative mtDNA/nuclear DNA copy numbers between different samples. In some experiments primers targeting the mitochondrial gene ND1 and the nuclear gene RUNX2 were used to assess mtDNA copy number by normalizing ct values of ND1 to those of RUNX2: ND1_F, CCCTAAAACCCGCCACATCT (SEQ ID NO. 14); ND1_R, GAGCGATGGTGAGAGCTAAGGT (SEQ ID NO. 15); RUNX2_F, CGCATTCCTCATCCCAGTATG (SEQ ID NO. 16); RUNX2_R, AAAGGACTTGGTGCAGAGTTCAG (SEQ ID NO. 17). Relative differences between samples were determined using the comparative Ct method.
KBM7 cells were cultured in IMDM supplemented with 10% IFS and penicillin/streptomycin, except for studies using tigecycline in which they were cultured in RPMI-1640. SH-SY5Y, HeLa, Malme-3M cells were cultured in DMEM supplemented with 10% FBS and penicillin/streptomycin. HeLa WT, HeLa ρ^0, and KBM7 cells used for ddI experiments were grown in DMEM supplemented with 10% FBS, penicillin/streptomycin, and 100 μg/mL uridine. Primary hepatocytes were cultured in Medium 199 supplemented with 10% FBS, penicillin/streptomycin, and GlutaMAX. KBM7, HeLa WT, and HeLa ρ^0 cells stably overexpressing ATPIF1 (WT or E55A) were generated via infection with retroviruses and selected with blasticidin (10 μg/mL) for three days. Malme-3M cells stably overexpressing RAP2A or ATPIF1 were generated by infection with lentiviruses expressing the corresponding cDNAs, followed by selection with puromycin (2 μg/mL) for three days. KBM7, SH-SY5Y, and HeLa cells expressing shLuc or shATPIF1 were generated by infection with lentiviruses expressing the corresponding shRNAs. All cells were infected with spin-infection using a 30 minute spin at 2,250 rpm in media containing polybrene (4 μg/mL), followed by selection one day later.
Failure to maintain proper amounts of the mitochondrial genome is a distinctive feature of a class of severe respiratory chain disorders known as mtDNA depletion syndromes (Lee and Sokol, 2007). Because of our interest in ATPIF1 inhibition as a potential strategy for ameliorating severe ETC dysfunction, we asked if loss of ATPIF1 alone was sufficient to improve cell viability during progressive mtDNA depletion. To do this, we exposed WT and IF1 KO KBM7 cells for 50 days to the drug 2′,3′-dideoxyinosine (ddI), an inhibitor of mtDNA replication, which depletes cells of their mtDNA (Lewis et al., 2003; Walker et al., 2002).

Data set [3] deals with KBM7 cells. Put plainly: Mitochondrial membrane potential (TMRM staining, FACS) in WT and ATPIF1 KO KBM7 cells. It counts as cell-based, human. The protocol:
Membrane potential was assessed using tetramethyl rhodamine methyl ester (TMRM). For the TMRM time course: 200,000 cells were used for each time point. Cells were treated with 121 uM antimycin and incubated in 25 nM TMRM (final concentration) in IMDM 20 minutes from the end of their time point at 37° C. and then analyzed by FACS analysis. Dead cells were excluded using 7-AAD.
200,000 cells were stained with 25 nM TMRM dye (Invitrogen) in parent media of cells. In the case of adherent cells, 10 uM verapamil (Sigma-Aldrich) was added to help retention of the dye. For suspension cells, the incubation of the dye was done for 30 minutes at 37° C., whereas for adherent cells, the incubation was done for 1 hour at 37° C. Suspension cells were kept on ice, then spun at 4000 rpm for 5 minutes at 4° C. in a table-top microcentrifuge, supernatant aspirated, cells washed once with ice-cold PBS, resuspended in ice-cold PBS with 2 ug/mL 7-AAD viability dye, incubated for 5 minutes on ice, and analyzed by FACS. Only 7-AAD negative live cells were analyzed. Adherent cells were first trypsinized, kept on ice, spun at 4000 rpm for 5 minutes at 4° C. in a table-top microcentrifuge, supernatant aspirated, cells washed once with ice-cold PBS, resuspended in ice-cold PBS with 2 ug/mL 7-AAD viability dye, incubated for 5 minutes on ice, and analyzed by FACS. Only 7-AAD negative live cells were analyzed.
(§2) FACS assays. For measurements of ΔΨm, 100,000 cells were incubated with TMRM (25 nM) and the indicated amounts of drugs for the indicated amounts of time before collection. For measurements of mitochondrial mass, 100,000 cells were incubated with MitoTracker Green FM (50 nM) for one hour. For primary hepatocytes, cells were assayed in suspension immediately after harvest from the liver and incubated with verapamil (20 μM) to facilitate retention of TMRM and MitoTracker Green FM signals. Afterwards, cells were collected by centrifugation, washed once with PBS, and resuspended in PBS with 7-AAD (2 μg/mL) for analysis. KBM7 cells and primary hepatocytes were centrifuged at 2000 rpm for 5 minutes and 500 rpm for 5 minutes at 4° C., respectively.

Data set [4] concerns KBM7 cells. Briefly: Cellular ATP (CellTiterGlo) in WT and ATPIF1 KO KBM7 cells. Type of data set: cell-based, human. The protocol: (§3) Equal numbers of cells were plated and ATP was determined using a CellTiterGlo assay (Promega) according to the manufacturer's instructions.
In general terms: In ATP-based viability assays light output follows the ATP content of the culture.

For data set [5], the system named is KBM7 cells. Briefly: Metabolite profiling of WT and IF1 KO KBM7 cells after antimycin treatment. The settings on record: after 1 hour of antimycin treatment; FIG. 7D as printed. It counts as cell-based, human. The protocol:
4 million KBM7 cells were centrifuged at 1500 rpm for 4 minutes at 4° C. in a swinging bucket centrifuge after the desired drug treatments. The supernatant was decanted and the cell pellet kept on dry ice. Each cell pellet was washed twice with ice-cold PBS. 3 mL of 80% ice-cold MeOH was then added to each pellet and the pellet vigorously resuspended. Samples were then submitted to the Broad Institute Metabolomics Platform for further processing and analysis.

Another data set relates to Malme-3M cells. Put plainly: Viability of Malme-3M cells overexpressing ATPIF1 treated with antimycin (CellTiter-Glo). It counts as cell-based. Particulars: antimycin for 4 days; FIG. 7G. The procedure:
as §1, with “CellTiter-Glo. […]” for “CellTiter-Glo.”

In the next data set the test system is primary hepatocytes. Put plainly: ATP, ΔΨm and viability of WT and ATPIF1−/− primary hepatocytes treated with antimycin. It counts as cell-based, mice. The protocol: as §3, §1
as §2, with “KBM7 cells and primary hepatocytes were centrifuged at 2000 rpm for 5 minutes and 500 rpm for 5 minutes at 4° C., respectively.” left out

[6] abbreviates: initial days of ddI treatment (Early).

In the case of `N#CC(C#N)=NNc1ccc(OC(F)(F)F)cc1` [FCCP, carbonylcyanide p-trifluoromethoxyphenylhydrazone], the “resistance of ATPIF1 null KBM7 cells to the poison” value (from here on “resistance”) in the data set with KBM7 cells [1] was “resistant”.
With `C[n+]1ccc(-c2ccccc2)cc1` [MPP+, 1-methyl-4-phenylpyridinium], in the data set on KBM7 cells [1], the “viability of ATPIF1 KO vs WT KBM7 cells in response to ETC inhibitors” value was “cells lacking ATPIF1 have increased viability as compared to wild type cells”.
Regarding `O=C(CC(=O)C(F)(F)F)c1cccs1` [TTFA], the “resistance” value with KBM7 cells [1] was “resistant”.
`OC[C@@H]1CC[C@H](n2cnc3c(O)ncnc32)O1` [ddI, 2′,3′-dideoxyinosine]: in the data set with KBM7 cells [2] (by about day 25 of ddI treatment (Middle)), the “mtDNA of WT and ATPIF1_KO KBM7 cells” value is given as “trace amounts of mtDNA”. The “proliferation of ATPIF1_KO vs WT KBM7 cells” value in the data set with KBM7 cells [2] (ddI, Middle (days 19-34)) is reported as “significantly faster rate of proliferation”. Also, in the data set on KBM7 cells [2] (setting [6]), the “cell proliferation of WT and ATPIF1_KO KBM7 cells” value is reported as “decrease in cell proliferation”; the “mtDNA copy number of WT and ATPIF1_KO KBM7 cells” value is on record as “immediate decrease in mtDNA copy number”. In addition, in the data set with KBM7 cells [2] (long-term exposure to ddI, FIG. 8E), the “ATPIF1 protein levels and activity of WT KBM7 cells” value is “greatly reduced ATPIF1 protein levels and activity”.
For `C/C=C(\C)[C@H](O)[C@H](C)/C=C(C)/C=C/C/C(C)=C/Cc1nc(OC)c(OC)c(O)c1C` [piercidin A, Piericidin A], in the data set with KBM7 cells [1], the “viability of ATPIF1 KO vs WT KBM7 cells in response to ETC inhibitors” value is listed as “cells lacking ATPIF1 have increased viability as compared to wild type cells” and the “resistance” value is listed as “resistant”.
As for `CN(C)c1cc(NC(=O)CNC(C)(C)C)c(O)c2c1C[C@H]1C[C@H]3[C@H](N(C)C)C(O)=C(C(N)=O)C(=O)[C@@]3(O)C(O)=C1C2=O` [tigecycline], the “viability of ATPIF1 KO vs WT KBM7 cells in response to ETC inhibitors” value with KBM7 cells [1] is given as “cells lacking ATPIF1 have increased viability as compared to wild type cells”.
For the compound antimycin A, in the data set with KBM7 cells [1] (antimycin A 121 μm, FIG. 1D), the “proliferation of clone 18 (ATPIF1 null) KBM7 cells” value is listed as “clone 18 cells continue proliferating” and the “proliferation of wild type KBM7 cells” value is listed as “wild type cells cease proliferating”. Further, the “resistance” value in the data set on KBM7 cells [1] was “marked resistance”. Moreover, in the data set with KBM7 cells [3] (FIG. 4, TMRM), the “rescue by loss of ATPIF1 of the loss of mitochondrial membrane potential caused by the poison” value is “rescued (in part)”. In the data set with KBM7 cells [3] (antimycin exposure, FIG. 7B), the “MMP in IF1 KO KBM7 cells” value is reported as “significant recovery in MMP after loss of MMP” and the “recovery of MMP in WT KBM7 cells” value was “WT cells did not”. Besides, in the data set with KBM7 cells [4] (FIG. 3A), the “ATP levels of ATPIF1 null vs WT KBM7 cells following antimycin treatment” value is listed as “significantly lower levels of initial ATP compared to WT cells”. Also, in the data set on KBM7 cells [4] (antimycin exposure, FIG. 7B), the “ATP levels in IF1 KO KBM7 cells” value is listed as “decreased significantly” and the “ATP levels in WT KBM7 cells” value is “not in WT cells”. The “glycolytic metabolites (DHAP, glyceraldehyde 3P, F6P), IF1 KO vs WT KBM7 cells” value in the data set with KBM7 cells [5] is “more depletion of glycolytic metabolites”. In the data set with Malme-3M cells, the “sensitivity of Malme-3M cells overexpressing ATPIF1” value is “increased their sensitivity to antimycin”. For the same compound, the “cellular ATP, ATPIF1−/− vs WT hepatocytes” value with primary hepatocytes (antimycin 0.625 μM for 1.5 hours, FIG. 11B) is “greater decrease in cellular ATP”. Further, the “cell viability, ATPIF1−/− vs WT hepatocytes” value with primary hepatocytes (antimycin 1.25 μM for 2 days, FIG. 11D) was “increased cell viability relative to WT hepatocytes”. Besides, in the data set with primary hepatocytes (antimycin 10 μM for 1.5 hours, FIG. 11C), the “ΔΨm, ATPIF1−/− vs WT hepatocytes” value is “greater increase in ΔΨm”.
